From patent US20210255193A1, “LYSINE REACTIVE PROBES AND USES THEREOF” (The Scripps Research Institute, priority 2017, published 2021)

Experiments:
Assay in all cases: competitive isoTOP-ABPP
Type in all cases: binding
[1] = biological target: T1, PSME3 Proteasome activator complex subunit 3 (Homo sapiens, UniProt P61289); set-up: key to isoTOP-ABPP reactivity ratio at lysine P61289_K237: R = MS1 peak area ratio, DMSO (heavy) / compound-treated (light); key to isoTOP-ABPP reactivity ratio at lysine P61289_K12: R = MS1 peak area ratio, DMSO (heavy) / compound-treated (light); capped at 20; details: for isoTOP-ABPP ratio, lysine P61289_K12 / isoTOP-ABPP ratio, lysine P61289_K237: 50 uM_231_sol_in vitro
T1 construct: isoTOP-ABPP experiments performed in cell lysates (in vitro); endogenous in cells; host or cells: soluble proteome of human cancer cell lines (MDA-MB-231, Ramos, Jurkat)
T1 sequence (P61289 whole entry, one chain of several): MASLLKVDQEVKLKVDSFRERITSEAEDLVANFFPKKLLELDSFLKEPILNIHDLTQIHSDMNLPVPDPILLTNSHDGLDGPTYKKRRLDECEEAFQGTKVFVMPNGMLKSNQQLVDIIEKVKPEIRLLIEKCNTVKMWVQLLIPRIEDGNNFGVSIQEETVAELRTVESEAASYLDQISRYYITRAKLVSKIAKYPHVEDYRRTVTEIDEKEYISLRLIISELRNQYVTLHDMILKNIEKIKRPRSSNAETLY
Experimental: (§1) In vitro covalent fragment treatment for isoTOP-ABPP. All compounds were made up as solutions in DMSO (100×) and were used at a final concentration of 50 μM for activated esters and 100 μM for guanidinylating agents. For each profiling sample, 0.5 ml of lysate was treated with 5 μl of the 100× compound stock solution or 5 μl of DMSO. Samples were treated with activated esters for
(§2) STP-alkyne labeling and click chemistry. For concentration-dependent reactivity measurements by isoTOP-ABPP, 0.5 ml proteome aliquots were treated at ambient temperature with 1 mM STP-alkyne 1 (5 μl of 100 mM stock in DMSO) and 0.1 mM STP alkyne 1 (5 μl of 10 mM stock in DMSO), respectively. For competitive isoTOP-ABPP, after in vitro fragment treatment (detailed above), the samples were labeled for 1 h at ambient temperature with 0.1 mM STP-alkyne 1 (5 μl of 10 mM stock in DMSO). Samples were conjugated by copper-mediated azide-alkyne cycloaddition (CuAAC) to either the light (1 mM STP-alkyne or fragment treated) or heavy (0.1 mM STP-alkyne or DMSO treated) TEV tags (10 μl of 5 mM stocks in DMSO, final concentration=100 μM) using tris(2-carboxyethyl)phosphine hydrochloride
(§3) R value calculation and processing. The ratios of light and heavy MS1 peaks for each unique peptide were quantified with a CIMAGE software using default parameters (3 MS1 acquisitions per peak and signal to noise threshold set to 2.5). For reactivity measurements by isoTOP-ABPP, the R value was calculated from the ratio of MS1 peak areas, comparing the 1 mM STP alkyne sample (light TEV tag) with the 0.1 mM STP alkyne sample (heavy TEV tag). For competitive isoTOP-ABPP, the R value was calculated from the ratio of MS1 peak areas, comparing the DMSO treated sample (heavy TEV tag) with the compound treated sample (light TEV tag). […] Ratios for unique peptide entries are calculated for each experiment; overlapping peptides with the same modified lysine (for example, different charge states, MudPIT chromatographic steps or tryptic termini) are grouped together and the median ratio is reported as the final ratio (R). The peptide ratios reported by CIMAGE were further filtered to ensure the removal or correction of low-quality ratios in each individual data set. The quality filters applied were the following: removal of half tryptic peptides; for ratios with high standard deviations from the median (90% of the median or above) the lowest ratio was taken instead of the median; removal of peptides with R=20 and only a single MS2 event triggered during the elution of the parent ion; manual annotation of all the peptides with ratios of 20, removing any peptides with low quality elution profiles that remained after the previous curation steps (only done for competitive isoTOP-ABPP).
(§4) Cross-data processing for fragment screening. For compound treated samples, biological replicates of the same condition were averaged, if the standard deviation was below 60% of the mean; otherwise, for lysines with at least one R value <4 for a particular compound, the lowest value of the ratio set was taken. For lysines, where all R values for a particular compound were ≥4, the average was reported. For peptides containing several possible modified lysines, the lysine with the highest number of quantification events was used for analysis and the remaining, redundant peptides were reported as alternative modification sites. Peptides included in the aggregate dataset (those used for further bioinformatics and statistical analyses) were required to have been quantified in 2 experiments for competitive isoTOP-ABPP. Lysines were categorized as liganded, if they had at least one ratio R≥4 (hit fragments). For liganded lysines with R=20 for all liganding events, lysines were required to have been quantified with R=20 in two separate experiments and were further required to have been quantified with R<20 in one additional experiment.

[2] = biological target: T2, ACBD3 Golgi resident protein GCP60 (Homo sapiens, UniProt Q9H3P7); set-up: key to isoTOP-ABPP reactivity ratio at lysine Q9H3P7_K117: R = MS1 peak area ratio, DMSO (heavy) / compound-treated (light); details: for isoTOP-ABPP ratio (R) at liganded lysine Q9H3P7_K117 / isoTOP-ABPP reactivity ratio at lysine Q9H3P7_K117: 50 uM, in vitro; for isoTOP-ABPP ratio (R) at liganded lysine Q9H3P7_K117: sol, 231; for isoTOP-ABPP ratio, lysine Q9H3P7_K117: 50 uM_231_sol_in vitro; for isoTOP-ABPP reactivity ratio at lysine Q9H3P7_K117: 231 sol
T2 construct: isoTOP-ABPP experiments performed in cell lysates (in vitro); endogenous in cells; host or cells: soluble proteome of human cancer cell lines (MDA-MB-231; Ramos and Jurkat also prepared)
T2 sequence (Q9H3P7 1-528): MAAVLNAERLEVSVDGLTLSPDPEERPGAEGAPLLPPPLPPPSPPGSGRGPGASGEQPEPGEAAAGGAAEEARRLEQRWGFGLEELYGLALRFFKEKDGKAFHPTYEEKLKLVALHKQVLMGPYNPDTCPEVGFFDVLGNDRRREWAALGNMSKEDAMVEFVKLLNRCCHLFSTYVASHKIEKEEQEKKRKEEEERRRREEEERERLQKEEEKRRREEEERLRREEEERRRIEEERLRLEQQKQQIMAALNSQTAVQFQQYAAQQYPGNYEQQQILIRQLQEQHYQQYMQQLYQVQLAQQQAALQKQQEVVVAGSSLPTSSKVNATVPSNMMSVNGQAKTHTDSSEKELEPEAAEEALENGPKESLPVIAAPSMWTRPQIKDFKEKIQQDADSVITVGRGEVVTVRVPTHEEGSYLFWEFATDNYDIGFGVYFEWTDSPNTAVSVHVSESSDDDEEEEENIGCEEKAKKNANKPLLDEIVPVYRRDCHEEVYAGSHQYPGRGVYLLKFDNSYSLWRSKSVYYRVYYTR
Experimental: as §1, §2, §3, §4

[3] = biological target: T3, SRP54 Signal recognition particle 54 kDa protein (Homo sapiens, UniProt P61011); set-up: key to isoTOP-ABPP reactivity ratio at lysine P61011_K81: R = MS1 peak area ratio, DMSO (heavy) / compound-treated (light); capped at 20; details: for isoTOP-ABPP ratio, lysine P61011_K81: 50 uM_231_sol_in vitro
T3 construct: isoTOP-ABPP experiments performed in cell lysates (in vitro); endogenous in cells; host or cells: soluble proteome of human cancer cell lines (MDA-MB-231, Ramos, Jurkat)
T3 sequence (P61011 whole entry): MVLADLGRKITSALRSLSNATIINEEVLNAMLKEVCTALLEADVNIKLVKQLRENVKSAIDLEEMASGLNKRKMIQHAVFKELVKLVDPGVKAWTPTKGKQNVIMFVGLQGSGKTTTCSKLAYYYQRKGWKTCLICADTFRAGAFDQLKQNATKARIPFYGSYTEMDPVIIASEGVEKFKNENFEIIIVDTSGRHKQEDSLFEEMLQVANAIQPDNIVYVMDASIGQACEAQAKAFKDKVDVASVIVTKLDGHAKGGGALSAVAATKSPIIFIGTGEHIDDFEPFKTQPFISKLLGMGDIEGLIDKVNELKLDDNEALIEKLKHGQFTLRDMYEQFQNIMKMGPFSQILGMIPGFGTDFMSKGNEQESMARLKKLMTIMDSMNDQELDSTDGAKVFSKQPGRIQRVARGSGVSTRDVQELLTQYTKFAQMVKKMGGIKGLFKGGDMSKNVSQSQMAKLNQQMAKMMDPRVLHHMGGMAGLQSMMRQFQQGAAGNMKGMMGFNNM
Experimental: as §1, §2, §3, §4

[4] = biological target: T4, RPS10 40S ribosomal protein S10 (Homo sapiens, UniProt P46783); details: 50 uM, in vitro, sol, 231
T4 construct: isoTOP-ABPP experiments performed in cell lysates (in vitro); endogenous in cells; host or cells: soluble proteome of human cancer cell lines (MDA-MB-231; Ramos and Jurkat also prepared)
In short: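 Lysine engagement is reported as R, the MS1 peak-area ratio of heavy-tagged DMSO to light-tagged compound samples. Final fragment concentrations were 50 μM for activated esters and 100 μM for guanidinylating agents; STP-alkyne probe 0.1 mM, 1 h.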

SMILES	isoTOP-ABPP ratio (R) at liganded lysine P61289_K12 ([1]; 50 uM, in vitro, sol, 231)	isoTOP-ABPP ratio (R) at liganded lysine Q9H3P7_K117 [2]	isoTOP-ABPP ratio, lysine P61289_K237 [1]	isoTOP-ABPP ratio, lysine P61011_K81 [3]	isoTOP-ABPP ratio, lysine Q9H3P7_K117 [2]	also measured
O=C(Oc1ccc([N+](=O)[O-])cc1[N+](=O)[O-])c1ccccc1Nc1cccc(C(F)(F)F)c1 [fragment 40, 2,4-Dinitrophenyl 2-((3-(trifluoromethyl)phenyl)amino)benzoate]	0.8	0.9				isoTOP-ABPP ratio (R) at liganded lysine P61289_K237 ([1]; 50 uM, in vitro, sol, 231): 0.7
O=C(Oc1ccc([N+](=O)[O-])cc1[N+](=O)[O-])C1CCN(C(=O)OCc2ccccc2)CC1 [fragment 34, 1-Benzyl 4-(2,4-dinitrophenyl) piperidine-1,4-dicarboxylate]	1.4	1.1				isoTOP-ABPP ratio (R) at liganded lysine P61011_K81 ([3]; 50 uM, in vitro, sol, 231): 0.8
O=C(Oc1c(F)c(F)c(C(F)(F)F)c(F)c1F)c1cc(C(F)(F)F)cc(C(F)(F)F)c1 [fragment 47, 2,3,5,6-Tetrafluoro-4-(trifluoromethyl)phenyl 3,5-bis(trifluoromethyl)benzoate]			0.9	0.9	1.0	isoTOP-ABPP ratio, lysine P61289_K12 [1]: 1.1
O=C(CC12CC3CC(CC(C3)C1)C2)Oc1ccc([N+](=O)[O-])cc1[N+](=O)[O-] [fragment 38, 2,4-Dinitrophenyl 2-(adamantan-1-yl)acetate]	1.9	1.0				isoTOP-ABPP ratio (R) at liganded lysine P46783_K139 [4]: 1.0
O=C(ON1C(=O)CCC1=O)c1cc(C(F)(F)F)cc(C(F)(F)F)c1 [fragment 46, 3,5-Bis(trifluoromethyl)benzoic acid NHS ester]			0.9	0.9	7.7	isoTOP-ABPP ratio, lysine P61289_K12 [1]: 0.7
NC(=O)c1cc(C(F)(F)F)cc(C(F)(F)F)c1 [fragment 51, reference compound]			0.7	0.7	0.9	
O=C(CN1C(=O)c2ccccc2C1=O)Oc1c(F)c(F)c(F)c(F)c1F [fragment 27, Pentafluorophenyl 2-(1,3-dioxoisoindolin-2-yl)acetate]						isoTOP-ABPP reactivity ratio at lysine P61289_K237 ([1]; 50 uM, 231 sol, in vitro): 0.8; isoTOP-ABPP reactivity ratio at lysine Q9H3P7_K117 [2]: 1.9
O=C(Oc1ccc([N+](=O)[O-])cc1[N+](=O)[O-])c1cc(C(F)(F)F)cc(C(F)(F)F)c1 [fragment 31, 2,4-Dinitrophenyl 3,5-bis(trifluoromethyl)benzoate]						isoTOP-ABPP reactivity ratio at lysine P61289_K12 ([1]; 50 uM, 231 sol, in vitro): 1.1; isoTOP-ABPP reactivity ratio at lysine P61289_K237 ([1]; 50 uM, 231 sol, in vitro): 1.1; isoTOP-ABPP reactivity ratio at lysine P61011_K81 ([3]; 50 uM, 231 sol, in vitro): 0.9; isoTOP-ABPP reactivity ratio at lysine Q9H3P7_K117 [2]: 1.1
